From US20160286800A1, “STABILIZED COMPOSITION OF AN OXIDIZER AND METAL IONS, METHOD AND USE FOR IMPROVING DISEASE CONTROL, AND KIT FOR PREPARING SAID COMPOSITION” (AGRI-NÉO INC., priority 2013, published 2016) come the findings set out here.

Entries after “also recorded” stand apart in the source; their conditions may differ. Read-outs that look alike come from different tables or passages of the source.

Series [1] is described as follows: Peracetic acid concentration in aqueous solution over time, Lamotte peracetic acid test kit (code 7191-01). The format is physicochemical. Conditions: with or without copper hydroxide / metal ions. An excerpt:
Those skilled in the art know how to monitor levels of peracetic in solutions. For instance, it is known to use iodometric titration (F. P. Greenspan and D. G. MacKellar, 1948, Anal. Chem., 20, 1061) or to use analytical test strips. Suitable test strips include those manufactured by Merck and which are currently available under two different formats (i.e. 5-50 ppm and 100-500 ppm). These test strips provide a rapid, convenient semi-quantitative method of determining peracetic levels. LaMotte Company (Chestertown, Md., USA) also provides a test kit (code 7191-01) for titrating peracetic acid.
Peracetic acid was generated by admixing with water a powdered product which is hereinafter called ATO CIDE. More particularly, 2 grams of the powdered product identified hereinafter under the name ATO CIDE was added and mixed for 10 minutes with in 1 liter of water, to give a solution of 2 g/L ATO CIDE. ATO CIDE is a powdered mixture consisting of:
Then, 100 mL of the above-mentioned solution of peracetic acid (i.e ATO CIDE solution) was mixed for 5 minutes with 0.1 g of a powdered product sold under the trademark PARASOL WG®. PARASOL WG® is a powdered product comprising 50% elemental copper as copper hydroxide.
Then, a 100 mL of the above-mentioned solution of peracetic acid (i.e ATO CIDE solution) was mixed for 5 minutes 0.2 mL of a complexing agent (PBTCA) until the sequestering agent was dissolved completely, and then 0.1 g of a powdered product sold under the trademark PARASOL WG® is added and dissolved with the resulting mixture. PARASOL WG® is a powdered product comprising 50% elemental copper as copper hydroxide.
Then mixtures were prepared as per below table:
(§1) Then mixtures #1 to #5 were prepared as per below table:
(§2) Mixtures were prepared at room temperature (around 20° C.) as per the following table: […]

Series [2] has as its system strawberry. Nature of the series: Phytotoxicity to strawberry (statement). Conditions: applied individually to strawberry; stated, no data shown.
Series [3] deals with strawberry. The conditions noted are these: in vivo.
A short description of series [4]: pH of the mixtures over time. The class given is physicochemical. The conditions noted are these: Trt 1 pH (0.1%). As to the method:
as §1, §2

In the case of `OP(O)O` [Phosphorous acid, phosphorous acid], in series [1], the “effect on stability of peracetic acid (conclusion in words)” value (shortened to “effect on stability of peracetic acid”) is on record as “stabilizes the peracetic acid very well”. Besides, the phytotoxicity entry in series [2] is “phytotoxic”.
Consider `O=P(O)(O)O` [Phosphoric acid, phosphoric acid], for which the entries for the “effect on stability of peracetic acid” value in series [1] and in series [1] (listed as phosphoric acid) were “prevented peracetic acid from being decomposed” and “prevented the decomposition of peracetic acid by metal ions”, respectively.
On to copper, for which the phytotoxicity result in series [3] is reported as “phytotoxic”.
With `OP(O)O` [Trt 1, Phosphorous acid], the pH in series [4] (Example 15, 24 hrs, Trt 2 pH (0.2%)) amounted to 2.53; in series [4] (Example 15, 48 hrs, Trt 2 pH (0.2%)) it was 2.80; in series [4] (Example 15, 120 hrs, Trt 2 pH (0.2%)), 2.90; in series [4] (Example 15, 148 hrs, Trt 2 pH (0.2%)), 2.85; in series [4] (Example 15, 172 hrs, Trt 2 pH (0.2%)), 2.80; in series [4] (Example 15, room temperature, Time zero (Trt 3-5: after the additions)), 2.80.
Consider `NS(=O)(=O)O` [Sulfamic acid, sulfamic acid], for which the “effect on stability of peracetic acid” value in series [1] was “prevented peracetic acid from being decomposed”.
Same read-out and setting: the result for `OB(O)O` [Boric acid, boric acid] reads “stabilizes PERACETIC ACID in solution for a longer period of time; also recorded: not as good as phosphoric acid in chelating copper hydroxide”.
